Reference: US7414154B2, “Polyamine compounds and compositions for use in conjunction with cancer therapy” (Wisconsin Alumni Research Foundation, priority 2002, dated 2008)

What was measured:
23SK skin cells = assay: cell cycle distribution by flow cytometry; format: cell-based, human; conditions: 23SK cells
From the text: FIGS. 5A-5D are cell histograms showing the results from flow cytometry analysis of chemoprotective polyamine-treated 23SK skin cells.
In FIG. 5, cell histograms showing the results from flow cytometry analysis of chemoprotective polyamine-treated 23SK skin cells are shown. […] The transient nature of the cell cycle block induced by chemoprotective polyamines is believed to be an important aspect of their efficacy, i.e., their ability to block cell cycle progression in stem cells during the course of chemo- or radiotherapy, and the resumption of normal stem cell division after a given cancer therapy course has been completed.

[1] = test system: p21 protein in 23SK human skin cells; assay: p21 induction by western analysis; format: cell-based; conditions: 30 hr exposure
Procedure: FIGS. 3A and 3B illustrate the level of induced p21 protein seen in diploid human fibroblasts after a 30 hr exposure to each of the indicated chemoprotective polyamines. […] In these experiments, the 23SK human skin cells were exposed for 30 hr to an “IC80” dose of each of the indicated chemoprotective polyamines and then lysed. Cell extracts were then prepared in order to measure p21 levels by western analysis (FIG. 3A).
FIG. 3 illustrates that chemoprotective polyamines are able to induce expression of the negative cell cycle regulatory protein, p21, after exposing the human skin cells to the polyamine molecules. […] In these experiments, the 23SK human skin cells were exposed for 30 hr to an “IC80” dose of each of the indicated chemoprotective polyamines and then lysed. Cell extracts were then prepared in order to measure p21 levels by western analysis (FIG. 3A). Although the ability of modified polyamines to induce p21 is known in the literature (Kramer, D. et al., Cancer Res. 59:1278-1286, 1999), it is a novel aspect of this invention that those chemoprotective polyamines with longer aliphatic “arms” were better able to induce expression of p21 as shown in FIG. 4.

CCNCCCCNCCCCNCCCCNCC=C(CS)CNCCCCNCCCCNCCCCNCC [PrC-116]
Cell Cycle Distribution At IC80 Dose (%) G1 (23SK skin cells): 66%
Cell Cycle Distribution At IC80 Dose (%) G2/M (23SK skin cells): 23%
Cell Cycle Distribution At IC80 Dose (%) S (23SK skin cells): 11%

CCNCCCCNCCCCNCCCCNCCCCNCC=C(CS)CNCCCCNCCCCNCCCCNCCCCNCC [PrC-117]
p21 fold-induction at IC80 Dose [1]: ~3.0 fold
Cell Cycle Distribution At IC80 Dose (%) G1 (23SK skin cells): 86%
Cell Cycle Distribution At IC80 Dose (%) G2/M (23SK skin cells): 3%
Cell Cycle Distribution At IC80 Dose (%) S (23SK skin cells): 11%

CCNCCCCNCCCCNCCCCNCCCCNCC=C(CNCCCCNCCCCNCCCCNCCCCNCC)CN(C)C [PrC-121]
Cell Cycle Distribution At IC80 Dose (%) G1 (23SK skin cells): 76%
Cell Cycle Distribution At IC80 Dose (%) G2/M (23SK skin cells): 20%
Cell Cycle Distribution At IC80 Dose (%) S (23SK skin cells): 4%
